Here are results for three compounds from patent publication US20080306155A1, “METHOD FOR TREATING RENAL DISEASE” (priority 2004, published 2008).

The test system of data set [1] is isolated glomeruli. As to the kind of experiment: Albumin permeability (Palb) of isolated glomeruli. The format is cell-based, rat. The settings on record: for increase in Palb produced by TGF-•1 after pretreatment of glomeruli: pretreated with 1 μmol/L for 15 minutes at 37° C., then TGF-•1 10 ng/ml. The method, then:
Measurement of Albumin Permeability (Palb): Glomeruli were isolated using the sieving method as previously described in a medium containing 5 g/dl of bovine serum albumin (BSA). See, Sharma R, et al, Kidney Intl. 58:131-136 (2000); and Savin V, et al. J. Am. Soc. Nephrol. 3:1260-1269 (1992). In each experimental condition, Palb was determined from the change in glomerular volume (•V) after exchange of the bath with medium containing 1 g/dl albumin. Palb was calculated as 1−(•Vexperimental/•Vcontrol) where glomeruli from SD rats fed a normal-salt diet were used to provide the control value for each experiment. To verify that lack of •Vs in Dahl S rats were related to changes in Palb rather than to changes in mechanical properties of glomeruli, additional studies were performed in which the glomeruli were exposed to a 5% solution of high molecular weight dextran.
In other experiments, we examined the interaction of TGF-• and 20-HETE on Palb in glomeruli isolated from SD rats and Dahl S rats fed either a LS diet or a HS diet for 4 days. Glomeruli were preincubated with vehicle or TGF-•1 (10 ng/ml) for 15 minutes at 37° C. and changes in Palb were determined. Glomeruli were also pretreated with 5, 14-20-HEDE (WIT003) (1 μmol/L; Taisho Pharmaceutical; Tokyo, Japan) (Alonso-Galicia et al., supra; and Yu et al., supra), for 15 minutes at 37° C. and the Palb response to TGF-• 1 (10 ng/ml) was redetermined. A minimum of 5 glomeruli from each rat were studied, and the experiments were performed using •5 rats per treatment group.

For data set [2], the system named is renal ischemia-reperfusion injury in SD rats. As to the kind of experiment: Renal ischemia-reperfusion injury model (Example 2). To be noted: 30 min ischemia, 24 h reperfusion; for degree of renal I/R injury reflected by rise in plasma creatinine concentration: HET0016 5 mg/kg s.c., WIT003 10 mg/kg s.c., 30 min prior, vs vehicle. It is filed as in vivo, rat. The protocol:
Renal Ischemia-Reperfusion Injury Model: Experiments were performed in male SD rats anesthetized with pentobarbital (50 mg/kg). The kidneys were exposed via a midline incision and the renal arteries isolated. Adjustable vascular occluders were placed on both the right and left renal arteries to completely occlude blood flow to the kidneys for 30 minutes. After the period of complete renal ischemia, the clamps were removed and the kidneys were reperfused. The surgical incisions were closed with 2-0 silk suture and the animals were allowed to fully recover from anesthesia. Twenty four hours later, the rats were reanesthetized with pentobarbital, and a sample of blood collected from the aorta for measurement of plasma creatinine concentration using an autoanalyzer. The kidneys were collected, fixed in 10% formalin solution, and paraffin sections prepared and stained with H&E to evaluate the degree of tubular necrosis and injury.
Three groups of rats were studied. Group 1 rats were treated with vehicle and served as the control animals. Group 2 rats were treated with HET0016 (5 mg/kg, s.c.) 30 minutes prior to renal ischemia. Group 3 rats were given 5, 14-20-HEDE (WIT003) (10 mg/kg, s.c.) by injection 30 minutes prior to renal ischemia.

For data set [3], the system named is renal I/R injury in SD rats. As to the kind of experiment: Renal I/R injury model (Example 3): plasma creatinine, tubular injury, TUNEL. The format is in vivo, rat. To be noted: for area occupied by necrotic tubular epithelium or cast material (tubular injury score): compared to vehicle or HET0016-treated animals; for histological appearance of tubular injury (H&E, fluorescence microscopy): corticomedullary junction; for plasma creatinine: SD rats, 24 h after 30 min ischemia, s.c. 30 min prior: HET0016 5 mg/kg, 5,14-20-HEDE 10 mg/kg, 5,14-20-HEDGE 1 mg/kg; for effect on plasma creatinine 24 hours following renal I/R injury: HET0016 5 mg/kg s.c., 5,14-20-HEDGE 1 mg/kg s.c. The protocol:
Renal I/R Injury Model: Rats were anesthetized with ketamine (50 mg/kg, i.m.) and sodium pentobarbital (50 mg/kg, i.p) and were placed on a heated surgical table to maintain body temperature at 37° C. A midline abdominal incision was made to expose the kidneys, and the renal arteries and veins were bilaterally occluded for 30 minutes using microvascular clamps. The clamps were then removed, the abdominal incision was closed, and the rats were allowed to recover for 24 hours. Rats were then euthanized with sodium pentobarbital (100 mg/kg, i.p.), and blood was collected from the aorta for measurement of plasma creatinine concentration using the Jaffe reaction. Both kidneys were collected for histological analysis.
In addition, the method was repeated on four groups of rats. However, rats were pretreated with a s.c. injection of vehicle or one of three treatments 30 minutes prior to induction of renal ischemia. Group 1 served as the control group and received 1 ml/kg of a vehicle (11% sulfobutyl-•-cyclodextrin in 165 mM mannitol solution, […].); Group 2 received HET0016 (5 mg/kg, s.c.); Group 3 received 5, 14-20-HEDE (10 mg/kg; s.c.); and Group 4 received 5, 14-20-HEDGE (1 mg/kg; s.c.).
Analysis of the degree of tubular injury: The kidneys of rats subjected to renal I/R injury were fixed in 10% formalin and paraffin sections (3•m) were prepared and stained with hematoxylin and eosin. The sections were examined at low power using a 2× objective of an Olympus BHT-2 (Olympus; Center Valley, Pa.) epifluorescent microscope equipped with a 540-nm excitation filter and a 590-nm emission filter. For each specimen, five randomly chosen outer medullary fields were photographed at 100× magnification using a digital color camera and following appropriate thresholding. The percentage of the area containing fluorescent necrotic tubular epithelium or cast material was quantified using Image-Pro Plus image analysis software (version 6.2; Media Cybernetics, Inc.; Bethesda, Md.). TUNEL labeling was also performed to assess the degree of apoptosis following renal LIR injury using an ApopTag Plus In Situ Apoptosis Fluorescein Detection Kit (Chemicon International; Temecula, Calif.) following the manufacturer's protocol. Apoptotic nuclei were visualized at approximately 100× by fluorescence microscopy and quantified using Metamorphi Image Analysis Software (Molecular Devices Corp.; Dowington, Pa.). A total of five fields were analyzed per section, with one section analyzed per animal. Data were expressed as the percentage of TUNEL positive nuclei per total number of DAPI stained cells.

Data set [4] in a line: Plasma levels of the 20-HETE analogs after s.c. injection (LC/MS). The format is in vivo, rat. The settings on record: rats, 10 mg/kg s.c.; for peak blood levels: 10 mg/kg. The method, then: Measurement of plasma levels of the 20-HETE analogs: A chronic polyvinyl catheter was implanted into the jugular vein and exteriorized at the back of the neck of SD rats several days prior to an experiment. After a three-day recovery period, the rats (n=4 in each group) received a s.c. injection of either 5, 14-20-HEDE (10 mg/kg) or 5, 14-20-HEDGE (10 mg/kg), and blood samples were collected 1, 4, 8 and 24 hours after administration. Plasma levels of 5, 14-20-HEDE and 5, 14-20-HEDGE were measured by liquid chromatography-mass spectrometry (LC/MS) using an Applied Biosystems API 3000 LC/MS/MS (Foster City, Calif.).

Data set [5] deals with renal I/R injury in rats. As to the kind of experiment: Renal hemodynamics (laser-Doppler flowmetry, arterial pressure) during and after renal I/R. It is filed as in vivo, rat. The method, then:
Assessment of renal hemodynamics: Additional experiments were performed to determine if the renoprotective effect of 5, 14-20-HEDGE on renal I/R injury was associated with changes in renal cortical and medullary hemodynamics. Rats were anesthetized with ketamine (50 mg/kg, i.m.) and Inactin (100 mg/kg, i.p.; Sigma; St. Louis, Mo.). Catheters were placed in the femoral artery for continuous measurement of arterial pressure and in the femoral vein for i.v. infusions. The left kidney was then exposed and placed in a kidney holder and a single-mode optical fiber was implanted 4 mm into the kidney for measurement of MBF by laser-Doppler flowmetry (LDF) as previously described. See, Zou A, et al., J. Hypertens. 13:557-566 (1995). CBF was measured by a second laser-Doppler probe held in static position by a micromanipulator 1 mm above the renal cortex. After surgery and a 30-minute stabilization period, MAP, CBF and MBF were continuously recorded using WinDaq data acquisition software (DATAQ Instruments Inc.; Akron, Ohio) during a 5-minute control period. Baseline MAP, MBF and CBF were determined and then 5, 14-20-HEDGE (1 mg/kg s.c.) or vehicle (1 ml/kg s.c.) were administered. Thirty minutes later, the blood supply to the left kidney was occluded for 45 minutes. MAP, MBF and CBF were recorded during ischemia and for 3 hours following reperfusion.

The mark [6] stands for this setting: 1 mg/kg s.c., vs vehicle, listed as 5, 14-20-HEDGE.

Entries after “also recorded” stand apart in the source; their conditions may differ.

As for `O=C(O)CCC/C=C\CCCCCCC/C=C\CCCCCO` [5,14-20-HEDE, 20-hydroxyeicosa-5(Z),14(Z)-dienoic acid], the “Palb after TGF-•1 in glomeruli pretreated with 20-HETE analog” value in data set [1] (glomeruli from Dahl S rats fed HS diet for 4 days, TGF-•1 10 ng/ml) came to 0.40±0.01. Further, in data set [1] (glomeruli from Dahl S rats fed HS diet for 4 days, before TGF-•1), the “Palb, baseline after pretreatment with 20-HETE analog” value is given as 0.25±0.01. Besides, the “baseline Palb after pretreatment of glomeruli” value in data set [1] (glomeruli pretreated with 1 μmol/L for 15 minutes at 37° C., SD rats) is “reduced”. Besides, in data set [1] (SD rats, listed as 20-HETE analog), the “increase in Palb produced by TGF-•1 after pretreatment of glomeruli” value is “greatly attenuated”. Further, the “increase in Palb produced by TGF-•1 after pretreatment of glomeruli” value in data set [1] (SD rats, listed as WIT003) is “opposed”. Moreover, the “histological damage to S3 segment of the proximal tubule” value in data set [2] (10 mg/kg s.c., data not shown) is listed as “reduced”. Besides, the “degree of renal I/R injury reflected by rise in plasma creatinine concentration” value in data set [2] is “significantly reduced”. Besides, the “reduction of plasma creatinine” value in data set [3] (10 mg/kg s.c., 24 h after renal I/R, vs vehicle) is listed as “approximately 50%”. Besides, in data set [3] (24 h after renal I/R, listed as 5, 14-20-HEDE), the “area occupied by necrotic tubular epithelium or cast material (tubular injury score)” value is “less severe renal injury; also recorded: marked reduction”. Moreover, in data set [3] (24 h after renal I/R), the “histological appearance of tubular injury (H&E, fluorescence microscopy)” value (“histological appearance” below) was “less severe renal injury with only focal tubular necrosis or exfoliation of tubular cells”. Further, the plasma creatinine in data set [3] came to 1.6 ± 0.3 mg/dL. In data set [4], the half-life result is reported as “approximately four”; the peak blood levels is 300 ng/ml and approximately 1 μM.

As for `O=C(O)CNC(=O)CCC/C=C\CCCCCCC/C=C\CCCCCO` [5,14-20-HEDGE, N-[20-hydroxyeicosa-5(Z),14(Z)-dienoyl]glycine], the “number of apoptotic nuclei (TUNEL staining)” value in data set [3] (24 h after renal I/R, 1 mg/kg s.c., vs vehicle) is on record as “significantly less”. Also, in data set [3] (24 h after renal I/R), the “area occupied by necrotic tubular epithelium or cast material (tubular injury score)” value was “less severe renal injury; also recorded: marked reduction” and the “histological appearance” value is listed as “less severe renal injury with only focal tubular necrosis or exfoliation of tubular cells”. Besides, the “effect on plasma creatinine 24 hours following renal I/R injury” value in data set [3] (vs vehicle) is reported as “nearly completely prevent the rise”. Besides, in data set [3], the plasma creatinine was found to be 0.5 ± 0.02 mg/dL. For the same compound, the “CBF or MBF prior to the induction of renal ischemia” value in data set [5] (1 mg/kg s.c.) is “did not have a significant effect”. For the same compound, the “post-ischemic medullary blood flow (MBF)” value in data set [5] (1 mg/kg s.c. 30 min before 45 min ischemia, 3 h reperfusion, vs vehicle, listed as 5, 14-20-HEDGE) is recorded as “completely prevented the post-ischemic fall in MBF”. In data set [5] (setting [6]), the “mean arterial pressure (MAP)” value was “without altering; also recorded: no effect” and the “post-ischemic cortical blood flow (CBF)” value is “without altering; also recorded: no effect”. Further, in data set [4], the half-life entry is reported as “approximately four”; the peak blood levels was 300 ng/ml and approximately 1 μM.

As for `CCCCc1ccc(N=CNO)c(C)c1` [HET0016, N-hydroxy-N′-(4-butyl-2-methylphenol)-formamidine, reference compound], the “degree of renal I/R injury reflected by rise in plasma creatinine concentration” value in data set [2] was “significantly greater”. Moreover, the “histological appearance” value in data set [3] (24 h after renal I/R) was “Diffuse tubular cell denudation, tubular cell necrosis, intratubular debris and tubular casts were present”. For the same compound, the “effect on plasma creatinine 24 hours following renal I/R injury” value in data set [3] (vs vehicle) is listed as “significant increase”. In data set [3], this compound gave a plasma creatinine of 3.8 ± 0.3 mg/dL.
